{"source": "patent US12018058B2", "about": "“Compositions and methods for diagnosing and/or treating kidney injury” (Boston Medical Center Corporation, priority 2018, dated 2024)", "key": {"primary human PTECs": {"system": "primary human PTECs", "assay_type": "cell-based", "design": "Improvement in cell survival: dose or concentration left out as unconfirmed", "details": "for Cell survival after ischemic stress: PTECs, ATP depletion, versus control peptide", "experimental": "Exposure to metabolic inhibitors is an established model of ischemic stress that reduces ATP content to, 10% of baseline values until recovery is initiated.24,26 To achieve ATP depletion, cells were washed three times in glucose-free DMEM (Invitrogen, Carlsbad, CA) followed by incubation in glucose-free DMEM containing sodium cyanide (5 mM) and 2-deoxy-glucose (5 mM) for the indicated times.26\nRecovery was initiated by replacing the stress medium described above with complete primary cell culture medium containing glucose and substrates that support the rapid restoration of cell ATP.27\nFor in vitro testing in primary human PTECs, peptides ([…]) were tested that replicate the Bax domain responsible for binding NPM,34 or two peptides designed to interfere with NPM function were compared with a random nonspecific sequence of the same length (control). Peptides intended to interfere with NPM function overlap key phosphorylation sites located at the NPM amino terminus (peptide 2) or carboxy terminus (peptide 3) detected by mass spectrometry. To improve cell uptake, all peptides contained a cell-penetrating sequence13. For in vivo experiments, a renal-targeting sequence (NLS) was added to enhance renal peptide uptake.35 Peptides were commercially synthesized (Biomatik, Wilmington, DE) J Am Soc Nephrol 30: ccc-ccc, 2018 Nucleophosmin in AKI 3www.jasn.org BASIC RESEARCHas follows: NPM-Bax blocking peptide: Ac-KKKRKV-(bA)-[…]-COOH (SEQ ID NO: 8); peptide 2: AC-PKKKRKV-(bA)-[…]-COOH (SEQ ID NO: 9); and peptide 3: AC-PKKKRKV-(bA)-ESFKK-QEKTPKTPKGPSSVED-IKAK-COOH (SEQ ID NO: 10). A single dose ([…] of the NPM-Bax blocking or control peptide) was administered by tail vein injection immediately after release of the pedicle clamps(0 timepoint) […] in each experimental group. A total of 42 control and 56 experimental animals were studied.\nTransient exposure to metabolic inhibitors replicates ischemia in vivo by activating Bax and causing cell death.13,29,36-38 Cell viability was assayed using a modified colorimetric technique (MTTassay).37 The number of surviving cells is expressed as a percentage of viable control cells detected at baseline. Serum BUN and creatinine levels were measured in tail vein blood samples for 7 days after ischemia using QuantiChrom BUN or creatinine assay kits (BioAssay Systems, Hayward, CA) according to the manufacturer's instructions."}, "NPM-Bax complex [1]": {"molecular_target": "T1, NPM-Bax complex (Mus musculus, UniProt Q61937)", "T1 construct": "from tissue; host or cells: renal cortical homogenate of C57BL/6J mice after bilateral renal pedicle clamping", "T1 sequence (Q61937 whole entry, one chain of several)": "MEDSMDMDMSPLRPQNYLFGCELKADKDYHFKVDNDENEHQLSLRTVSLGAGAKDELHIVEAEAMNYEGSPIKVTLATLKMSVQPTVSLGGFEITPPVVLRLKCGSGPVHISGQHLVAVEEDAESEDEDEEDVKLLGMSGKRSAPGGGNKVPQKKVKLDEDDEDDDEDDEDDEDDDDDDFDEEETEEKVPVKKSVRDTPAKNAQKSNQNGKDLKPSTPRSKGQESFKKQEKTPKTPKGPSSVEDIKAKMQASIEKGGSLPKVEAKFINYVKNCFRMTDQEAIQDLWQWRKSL", "assay": "NPM-Bax interaction, Bax immunoprecipitates from renal cortical homogenates after ischemia", "assay_type": "in vivo, murine", "details": "for Bax-NPM interaction in postischemic renal homogenates: peptide injected 3 hours after bilateral renal ischemia, FIG. 9B", "experimental": "Similar amounts of Bax were detected in each lane, and input protein amounts for each sample were identical. IB, immunoblot; IP, immunoprecipitation.\nCell, tissue, and urinary proteins were harvested using PD buffer containing 40 mM Tris-HCl, pH 8.0, 500 mM NaCl, 0.1% Nonidet P-40, 6 mM EGTA, and a protease inhibitor cocktail (Set I; Calbiochem, San Diego, CA). NPM was immunoprecipitated overnight with NPM antibodies (catalog no. B0556; Sigma-Aldrich) in the presence of protein A/G-agarose beads at 4° C. NPM accumulation was measured in cytosolic samples extracted with low-dose digitonin ([…]).13 Cytosolic proteins were extracted from renal cortical tissue samples using an extraction kit (Biochain Institute, Newark, CA). Briefly, 50-100 mg of kidney cortex tissue was minced on ice and spin washed with 1 ml ice-cold wash buffer before adding […] of buffer C. The mixture was rotated at 4° C. for 20 minutes and then centrifuged at 18,0003 g at 4° C. for 20 minutes before being harvested. Protein levels were measured with the bicinchoninic acid assay (Thermo Scientific, Rockford, IL).\n(§1) NPM is a relevant therapeutic target in human AKI. Primary human proximal tubule epithelial cells (PTEC) derived from cadaveric kidneys were subjected to ischemic stress (transient ATP depletion) in the presence of specific NPM siRNA or non-sense siRNA. […] Thus, manipulating NPM is an effective maneuver. […] Small peptides of 30 amino acids or less are sufficiently specific to minimize off target effects and also reduce the risk of eliciting an antibody response that causes tachyphylaxis. Peptides were commercially synthesized and fused to a nuclear localizing sequence (this NLS has no functional relationship to the “NPM NLS” that regulates NPM translocation). The NLS-CPP markedly increases renal accumulation of small peptides8 as well as in the proximal tubule. […] To determine its effect on NPM-Bax complex formation, active Bax was immunoprecipitated from PTEC rendered ischemic with an antibody directed against the 6A7 epitope. The precipitates were subjected to immunoblot analysis using an anti-NPM antibody. […] NPM and Bax accumulation was measured in mitochondria isolated from human PTEC after ischemic stress. […] This is likely due to the prolonged half-life (about 80 hr) of the peptide in vitro and in vivo due to the presence of an AC modification slows degradation."}, "NPM-Bax complex [2]": {"system": "NPM-Bax complex", "assay": "NPM-Bax complex formation, 6A7 Bax immunoprecipitation and NPM immunoblot in ischemic PTEC", "assay_type": "cell-based", "details": "ischemic primary murine PTEC; compared to size matched random peptide", "description": "as §1"}, "[3]": {"system": "mitochondrial Bax accumulation", "assay": "NPM and Bax accumulation in mitochondria isolated from PTEC after ischemic stress", "assay_type": "cell-based", "details": "mitochondria isolated from human PTEC after ischemic stress", "description": "as §1"}, "[4]": {"assay": "Peptide half-life in vitro and in vivo"}}, "note": "Where two headings read alike, the source gives them in different places. Square brackets hold non-standard residues; d marks the D form. Peptide text beside a SMILES is read from it. βAla = NCCC(=O)O"}
{"smiles": "CC[C@H](C)[C@H](NC(=O)[C@@H](NC(=O)[C@H](CC(C)C)NC(=O)[C@H](CO)NC(=O)[C@H](C)NC(=O)[C@@H](NC(=O)[C@H](CC(C)C)NC(=O)[C@@H](NC(=O)CNC(=O)[C@H](C)NC(=O)[C@@H](NC(=O)[C@H](Cc1ccccc1)NC(=O)[C@@H](NC(=O)[C@@H](NC(=O)[C@@H](NC(=O)[C@@H](NC(=O)CCNC(=O)[C@@H](NC(=O)[C@H](CCCCN)NC(=O)[C@H](CCCNC(=N)N)NC(=O)[C@H](CCCCN)NC(=O)[C@H](CCCCN)NC(=O)[C@H](CCCCN)NC(C)=O)C(C)C)[C@@H](C)O)C(C)C)[C@@H](C)O)[C@@H](C)CC)C(C)C)C(C)C)[C@@H](C)O)[C@@H](C)O)C(=O)N[C@@H](Cc1c[nH]c2ccccc12)C(=O)N[C@@H](CCCCN)C(=O)N[C@@H](CCCCN)C(=O)N[C@@H](CCSC)C(=O)NCC(=O)O", "note": "[Peptide #1] (Ac-KKKRKV[βAla]TVTIFVAGVLTASLTIWKKMG-OH)", "values": [{"measurement": "Improvement in cell survival", "setting": "primary human PTECs", "value": 25, "unit": "%"}, {"measurement": "Cell survival after ischemic stress", "setting": "primary human PTECs; listed as Bax peptide", "value": "significantly improve cell survival"}, {"measurement": "Cell survival after ischemic stress", "setting": "primary human PTECs; listed as NPM blocking peptide", "value": "improves renal cell survival"}, {"measurement": "Decrease of NPM-Bax complex formation in vivo (renal cortical homogenates)", "setting": "NPM-Bax complex [1]; after ischemia by pedicle clamping", "value": "about 50%"}, {"measurement": "Bax-NPM interaction in postischemic renal homogenates", "setting": "NPM-Bax complex [1]", "value": "markedly decreases"}, {"measurement": "Bax-NPM interaction in postischemic renal homogenates", "setting": "NPM-Bax complex [1]; listed as Blocking peptide", "value": "markedly reduced"}, {"measurement": "Bax-NPM interaction in postischemic renal homogenates", "setting": "NPM-Bax complex [1]; listed as NPM-Bax blocking peptide (Peptide #1)", "value": "decreases"}, {"measurement": "Decrease of NPM-Bax complex formation", "setting": "NPM-Bax complex [2]", "value": "about 50%"}, {"measurement": "Mitochondrial Bax and NPM accumulation", "setting": "[3]", "value": "decreased mitochondrial Bax accumulation to a greater extent than it reduced NPM accumulation"}, {"measurement": "half-life", "setting": "[4]", "value": "~80", "unit": "h"}]}
